From article PMC3263612, “Development of an Oral Form of Azacytidine: 2′3′5′Triacetyl-5-Azacytidine” (Chemotherapy Research and Practice, 2011)
In brackets after ≈: the same amount, converted by molar mass.

How the values were obtained:
Solubility at various pH = type: physicochemical
Description: The solubility of TAC in comparison to ACT was evaluated at various pH. TAC and ACT were equally soluble at pH1 (40 mg/mL) and pH3 (25 mg/mL), while TAC was more soluble than ACT at pH5 (30 mg/mL versus 15 mg/mL) and pH7 (30 mg/mL versus 10 mg/mL). […] At pH 1, we observed a moderate hydrolysis of TAC (26%) to the mono- and diesters in the first 3 hours of incubation increasing to 60% after 6 hrs. However, after 24, 99% of TAC was hydrolyzed, including 46% to the parent compound, ACT.

[1] = oral film-coated formulation, 80 mg dose, cited from earlier work
[2] = Pharmacokinetics and metabolism of TAC in mice; type: in vivo, C57/BL6 mice; conditions: ACT 25 mg/kg i.v., analyte ACT
Description: To monitor the in vivo absorption, distribution, and metabolism of TAC, a highly sensitive LC/MS/MS analytical method was developed that allows the quantitation of concentrations as low as 10 ng/mL of TAC and its metabolites. The samples were prepared by adding 200 μL of plasma to 400 μL of cold acetonitrile, vortexed, and centrifuged at 14,000 rpm for 10 minutes. The supernatant was placed into a 10 × 75 mm glass test tube and evaporated to 50 μL under nitrogen at 37°C. The residue was then diluted with 1 mL of 2% phosphoric acid and vortexed for 10 seconds at 3,000 rpm.
Solid phase extraction was conducted using a Varian Bond Elute PLEXA PCX 1 mL columns placed on a vacuum manifold. Columns were activated by adding 1 mL of MeOH followed by 1 mL H2O and 1 mL of 2% phosphoric acid. All samples were allowed to drip by gravity flow. The extraction columns were then washed sequentially with 1 mL 2% phosphoric acid, 1 mL H2O, and 1 mL MeOH/AcCN (1/1) and eluted into a 10 × 75 mm glass test tube containing 50 μL of 25% formic acid in MeOH with 2 × 600 μL of 2% NH4OH in MeOH/AcCN (1/1). The liquid was then evaporated to dryness with nitrogen at 37°C, and 100 μL of mobile phase A was added and vortexed for 10 seconds at 3,000 rpm and transferred to LC autosampler vials at 4°C.
HPLC separation was conducted on a reverse phase C18 column (Varian Pursuit C18, 3 micron particle size; 100 mm × 2.0 mm) using a Shimadzu SIL-HTc controller with dual LC-20AD pumps and DGU-20A3 degasser. The separation was achieved using a gradient of Mobile Phase A: 0.1% Formic Acid and Mobile Phase B: 0.1% Formic Acid, 90% MeOH with a flow rate of 400 μL/min at 40°C over 10 minutes. MS/MS fragmentation was performed on an Applied Biosystems API 3200 instrument with a Turbo V Ion Spray ion source and Positive ion polarity.
To evaluate the in vivo pharmacokinetic properties of TAC, C57/BL6 female mice of 20 g body weight were dosed with 38 mg/kg TAC p.o. (equimolar dose to 25 mg/kg of ACT) or 25 mg/kg ACT i.v. via tail vein injection. TAC and ACT were solubilized in 1X PBS immediately before administration and dosed at 0.01 mL/g fasted body weight. Blood samples (two time points per animal, three animals per time point) were obtained via retro-orbital bleeding with Natelson pipettes at 0.5, 1, 2, 4, 8, and 24 hours after drug administration. The collected blood was then centrifuged for 4 minutes at 13,000 g. Plasma was immediately extracted with cold acetonitrile and stored at −80°C until LC/MS/MS analysis.
Noncompartmental plasma pharmacokinetic parameters for TAC prodrug and ACT after oral TAC or i.v ACT administrations were estimated using the sparse sampling option in WinNonlin Software version 4.1 (Pharsight Corp., Mountain View, Calif, USA). Briefly, the WinNonlin sparse sampling option applies the linear trapezoidal rule for area under the concentration-time curve (AUC) calculations and generates a standard error for the mean AUC estimate that accounts for correlations in the data resulting from repeated sampling of individual mice. Parameters of interest included the AUC from time 0 to the last measurable concentration (AUClast), observed peak concentration after oral administration (Cmax), estimated peak concentration after i.v. administration (C0), mean residence time to the last measurable concentration (MRTlast), and the half-life of the terminal phase (T1/2). To assess the multiphasic decline in plasma concentrations, an alpha (T1/2α) half-life was also estimated using a log-linear regression of the mean ACT concentrations through 2 hours after dosing.

[3] = LogP determination, shake-flask water/octanol; type: physicochemical; conditions: un-ionized, read-out: experimental LogP
Description: The OSIRIS Property Explorer software was used to generate initial cLogP values. […] The pH of the water was 2 units above the pKa of the compound, preventing ionization. The experiment was conducted using the shake-flask method, after allowing octanol and water to equilibrate for 24 hours at 25°C. The initial drug concentration in water was 0.2 mM. Tubes were rotated at a 45 degree angle for 10 minutes with a 3 second rotation. The test was performed in a constant environment of 20°C–25°C. Tubes were centrifuged at 1000 g for 10 minutes, and the octanol phase was extracted. The UV/Visible absorption spectrum was evaluated from 550 nm to 210 nm to determine the absorption maximum. The analyte concentration was determined and the LogP calculated: Log = log(concentration in octanol/concentration in water).

[4] = system: L1210 lymphocytic leukemia; test: In vivo L1210 lymphocytic leukemia model; parameters: species or system BDF1 mice
Description: The in vivo L1210 lymphocytic leukemia model in C57BL/6 × DBA/2 F1(BDF1) female mice was used to evaluate the in vivo antiproliferative effect of TAC. L1210 cells were carried in BDF1 mice by weekly i.p. (intraperitoneal) passages. Leukemia cells from ascites fluid were diluted appropriately in […] medium and injected i.p. (1×10^5 cells/0.1 mL/mouse) into recipient mice. A daily oral administration of TAC (38 mg/kg via oral gavage) or ACT (25 mg/kg administered i.p.) diluted in PBS was given to leukemic BDF1 mice starting 24 hours from the inoculation of L1210 cells for a total of 5 days. Compounds were prepared fresh daily. A group of untreated leukemic mice received sterile water for injections and served as controls.

[5] = Drug stability at pH 1, 3, 5 and 7.4 (LC/MS/MS); type: physicochemical; conditions: throughout the pH range, maximum stability at pH 1; data not shown
Description: ACT and TAC stabilities were determined after incubation at pH1 (2% Phosphoric acid), pH3 (0.1% Formic Acid), pH5 (K3PO4), and pH7.4 (Dulbecco's PBS). 100 ng of each compound was resuspended in 1.2 mL total volume, and 200 μL samples taken at 1, 3, 6, 29, and 48 hr. Each pH point was repeated 6 times in 2 dram vials with Teflon-lined screw caps at room temperature. Samples were extracted by solid-phase extraction using 100 ng decitabine as an internal standard and analyzed by tandem mass spectroscopy as described above.

L1210 cells = system: L1210 cells; parameters: method as in PMID 6083417; conditions: published value, confirmed by MTS assay; cited from earlier work
P15 promoter methylation = test: p15INK4B methylation status (EpiTect Methyl qPCR) in L1210 cells; type: cell-based, Mouse; conditions: 48 hours
Description: Mouse leukemia cells (L1210) were purchased from ATCC. The published IC50 value for ACT (0.2 uM) was first confirmed using the Promega CellTiter MTS assay. […] Genomic DNA was isolated after 48 hours using the Sigma GenElute Genomic DNA Kit, including the RNase treatment step to ensure no RNA carryover. The methylation status of p15INK4B was determined using a predesigned primer set and the EpiTect Methyl qPCR Assays MethylScreen technology (Qiagen, Frederick, Md, USA).

global DNA methylation = test: Global methylation detection assay in mouse tissues; type: in vivo, C57BL6 mice; parameters: unit not given here; conditions: 5 days ACT 25 mg/kg or TAC 38 mg/kg p.o., dot blot
Description: 24 hours following drug administration, snap-frozen mouse tissues were homogenized and genomic DNA isolated using Promega's Wizard Genomic DNA Purification Kit. 100 ng of EcoRI linearized genomic DNA was spotted onto PVDF membrane. The membrane was air-dried and repermeabilized according to manufacturer's instructions. Nonspecific binding was blocked using 5% milk in PBS-T and washed twice in PBS-T for 5 minutes. The membrane was incubated with primary antibody (1 : 1000 anti-5-methylcytosine in PBS-T, Calbiochem) for 1 hour then washed four times for five minutes each with PBS-T. The membrane was incubated with the HRP-conjugated secondary antibody for 1 hour and washed four times for five minutes each with PBS-T. Signal intensity following ECL detection was quantitated using KODAK Image Station software. Assay results were confirmed using EpiGentek's Methylamp Global DNA Methylation Quantification Kit per manufacturer's instructions.
In an in vivo experiment designed to evaluate the effect of a prolonged administration of TAC on global methylation, TAC (38 mg/kg p.o.) or ACT (25 mg/kg i.p.) diluted in PBS was administered to C57BL6 mice every 24 hours for 5 consecutive days (four animals per group). […] The positive results in gut and spleen were confirmed using the EpiGentek's Methylamp Global DNA Methylation Quantification Kit.

[6] = female, C57/BL6, mouse, plasma, iv
[7] = tissue 24 hours after treatment

Nc1ncn([C@@H]2O[C@H](CO)[C@@H](O)[C@H]2O)c(=O)n1 [ACT, 5-azacitidine]
solubility (Solubility at various pH; pH 1, pH1): 40 mg/mL (≈ 164 mM) | solubility (Solubility at various pH; pH 3, pH3): 25 mg/mL (≈ 102 mM) | solubility (Solubility at various pH; pH 5, pH5): 15 mg/mL (≈ 61.4 mM) | solubility (Solubility at various pH; pH 7, pH7): 10 mg/mL (≈ 40.9 mM) | bioavailability ([1]; four human subjects): 17.4% | mean plasma half-life ([1]; human): 0.39 h | T1/2α ([2]; data through 2 hours): 0.32 h | Cmax [2, 6]: 81.1 µM | MRT last [2, 6]: 1.1 h | C0 ([2]; female, C57/BL6, mouse, plasma, iv, estimated peak concentration): 212 µM | half-life ([2]; female, C57/BL6, mouse, plasma, iv, terminal phase): 6.8 h | AUC(0-t) ([2]; female, C57/BL6, mouse, plasma, iv, mean (standard error)): 126 µM·h | logP [3]: -2.32 | survival ([4]; azacitidine 25 mg/kg i.p. (maximum tolerated dose) daily for 5 days): 17 days | increased lifespan ([4]; azacitidine 25 mg/kg i.p. daily for 5 days): 112% | weight reduction ([4]; azacitidine 25 mg/kg i.p., L1210-bearing mice): 16% | stability of azacitidine in solution [5]: significant degradation | IC50 (L1210 cells): 200 nM | decrease of P15 promoter methylation (P15 promoter methylation; 0.1 uM ACT): 39% (±3) | decrease of P15 promoter methylation (P15 promoter methylation; 10 uM ACT): 49% (±17) | densitometry of methylation level, Gut Average (global DNA methylation; four animals): 29 | densitometry of methylation level, Spleen Average (global DNA methylation; four animals): 50 | densitometry of methylation level, Gut.1 (global DNA methylation; [7]): 37 | densitometry of methylation level, Gut.2 (global DNA methylation; [7]): 14 | densitometry of methylation level, Gut.3 (global DNA methylation; [7]): 34 | densitometry of methylation level, Gut.4 (global DNA methylation; [7]): 33 | densitometry of methylation level, Spleen.1 (global DNA methylation; [7]): 54 | densitometry of methylation level, Spleen.2 (global DNA methylation; [7]): 71 | densitometry of methylation level, Spleen.3 (global DNA methylation; [7]): 48 | densitometry of methylation level, Spleen.4 (global DNA methylation; [7]): 29
